Measurements as given in patent US12486218B2, “Compounds advantageous in the treatment of central nervous system diseases and disorders” (AurimMed Pharma, Inc., priority 2008, dated 2025).

Assays:
[1] = system: mice; test: Maximal Electroshock Seizure (MES) test, mice i.p.; type: in vivo; details: for activity in the MES test: mice
[2] = system: mice; test: Subcutaneous Metrazol Seizure threshold (s.c. MET) test, mice i.p.; type: in vivo
[3] = system: rat dopaminergic N27 cells; test: N27 protection assay against oxidative stress (H2O2 or MPP+; MTT and LDH); type: cell-based; details: drug 24 hours before 200 μM H2O2 or 640 μM MPP+
Excerpt: FIGS. 20A-25D data are shown illustrating neuroprotective and neuroregenerative effects observed in rat dopaminergic N27 cells. Rat dopaminergic N27 cells are commonly used in in vitro and in vivo model systems for studying Parkinson's disease. Parkinson's disease is a neurodegenerative disorder of the central nervous system that affects more than 6 million people worldwide. The motor symptoms of Parkinson's disease result from the death of dopamine generating cells in the substantia nigra, a region of the midbrain.
The N27 rat dopaminergic neuron cell line was harvested from E12 rat mesencephalic tissue and was transfected with SV40 to immortalize the cell line. The N27 cell line, when injected into the striata of 6-hydroxydopamine-lesioned rats (an animal model of PD) caused a time-dependent improvement in neurological deficits. This immortalized cell line has been carefully characterized in studies of dopamine biosynthesis, neurotoxicity and used as a dopaminergic neuron model studies.
The N27 in vitro Parkinson's disease model included a test of cell viability and cell toxicity in response to exposure to oxidative stress (e.g., either 200 μM H2O2 or 640 μM MPP+).
Cell viability was tested using the MTT assay. The MTT assay is a colorimetric analysis based on the activities of mitochondrial NAD(P)H-dependent cellular oxidoreductase enzymes. These enzymes are capable of reducing the tetrazolium dye, MTT [3-(4,5-dimethylthiazol-2-yl)-2,5-diphenyltetrazolium] bromide, to an insoluble formazan (purple). […] More viable cells equal more accumulation of the insoluble formazan dye.
Cell toxicity was tested using the […] (LDH) assay. Cells that are stressed secrete LDH. In general, the more cells are stressed, the LDH they secrete into their media. The LDH assay is a reliable colorimetric assay to measure quantitatively the […] (LDH) that is released into the cell culture media from damaged cells as a biomarker for cytotoxicity and cytolysis.
FIGS. 20A-25D present data from two types of assays: protection and recovery assays. In the protection assays, the drug candidate was applied to the cells at various concentrations for 24 hours, followed by the exposure to oxidative stress (either 200 μM H2O2 or 640 μM MPP+) for measuring neuroprotective effect. H2O2 provides a broad measure of oxidative stress, while MPP+ gives a more specific oxidative stress to dopaminergic neurons.
The protection assay results are shown in panels A-C of FIGS. 20-25 In the recovery assays, the cells were first damaged by exposure to H2O2 and then various concentrations of the drug were applied to the cells. The results for the recovery assays are shown the D panels of FIGS. 20-25.

[4] = system: mice; test: Minimal motor impairment (MID50), mice i.p.; details: mice i.p.
Description: (§1) The animal testing was performed according to methods known in the relevant art.

[5] = system: rats; test: MES test, rats p.o.; type: in vivo; details: at 30 mg/kg
[6] = system: SMN2 promoter; test: SMN2 promoter β-lactamase reporter assay in NSC34 motor neuron-like cells; type: cell-based; details: for SMN2 promoter assay, particularly strong hits: NSC34 BLA reporter cells; for Promoter (SMN2 promoter test, summary YES/NO): Table 13 summary; for SMN2 promoter activity: treatment for 19 hours at a concentration of 1 μM
Description: FIG. 30 illustrates a screen for SMN2 expression of a number of compounds described herein.
SMN2 promoter activity was measured using NSC34 motor neuron-like cells stably transfected with a β-lactamase (BLA) reporter gene under the control of a 3.4-kilobase fragment of the SMN2 promoter. D156844 was used as a positive control for this assay.

[7] = system: inclusion of exon 7 in SMN2 mRNAs; test: Exon 7 inclusion BLA reporter assay in NSC34 cell line; type: cell-based; details: for effect on the inclusion of exon 7 in SMN2 transcripts / exon 7 test, particularly strong hits: NSC34 exon 7 BLA reporter cells; for Exon 7 inclusion (summary YES/NO): Table 13 summary
Excerpt: To measure changes in the inclusion of exon 7 in SMN2 mRNAs, another NSC34 cell line was used that stably transfected with a reporter construct which expresses BLA when exon 7 is included in the SMN2 minigene mRNAs. 5-(N-ethyl-N-isopropyl)-amiloride (EIPA) was used as a positive control for this assay. Data for tis assay is illustrated in FIG. 30.

[8] = system: rats; test: Pilocarpine-induced Status Epilepticus in Rats (prevention; intervention @ 30 min); details: Rattus norvegicus
Description: The animal testing was performed using the protocols developed in the Anticonvulsant Screening Program (ASP) at the National Institute of Neurological Disorders and Stroke (NINDS), National Institutes of Health (NIH).

[9] = system: mice; test: 6 Hz (minimal clonic seizure) model, mice i.p.; type: in vivo; details: for 6 Hz (32 mA), fraction of animals: mice i.p.
[10] = in vivo; details: mouse, ip
Description: as §1

[11] = 0.5 h, read-out: Intervention @ 30 min, Protection
[12] = read-out: Prevention, Protection

## NC(=O)CC1(c2ccc(Cl)cc2)CC1 [AH]
[1]; mice i.p., @ 0.25 hr
  MES ED50: 69.6 mg/kg
[2]; mice i.p., @ 0.25 hr, in mg/kg
  s.c. MET ED50: 77.98
[3]
  neuroprotective effect against H2O2 and MPP+ oxidative stresses (MTT and LDH assays): statistically significant, dose-dependent neuroprotection
[4]; @ 0.25 hr
  MID50 (TD50): 185.73

## CC(CC(N)=O)c1ccc(Cl)cc1 (centres unmarked) [BV, 3-[4-chloro-phenyl]butyramide]
[1]; mice i.p., 100 mg/kg @ 0.5 hr
  MES, fraction of animals: 2/3 @
[1]; at 100 mg/kg
  activity in the MES test: activity
[5]
  activity in the MES test: activity

## CC(CC(N)=O)c1ccccc1OC(F)(F)F (centres unmarked) [BU, 3-[2-(trifluoromethoxy)-phenyl]butyramide]
[1]; mice i.p., 100 mg/kg @ 0.5 hr
  MES, fraction of animals: 3/3
[1]; mice i.p., 100 mg/kg @ 4.0 hr
  MES, fraction of animals: 2/3
[1]; at 100 mg/kg
  activity in the MES test: activity
[6]
  SMN2 promoter assay, particularly strong hits: Particularly strong hits
  Promoter (SMN2 promoter test, summary YES/NO): YES
  SMN2 promoter activity: increased SMN2 promoter activity
[7]
  effect on the inclusion of exon 7 in SMN2 transcripts: positive effect on the inclusion of exon 7
  exon 7 test, particularly strong hits: Particularly strong hits
  Exon 7 inclusion (summary YES/NO): YES
[4]; 100 mg/kg @ 0.5 hr
  MID50, fraction of animals: 5/8 @
[8]; [11]
  responders at 127 mg/kg: 50%
[8]; [12]
  responders at 65 mg/kg: 100%

## NC(=O)[C@@H]1C[C@H]1c1ccccc1 (relative stereo) [Compound P, trans-2-phenylcyclopropane-1-carboxamide]
[1]; at 300 mg/kg
  activity in the MES test: activity
[5]
  activity in the MES test: activity
[8]; [12]
  responders at 450 mg/kg: 100%

## CCC(CC(N)=O)c1ccc(C(F)(F)F)cc1 (centres unmarked) [Compound AA, 3-(4-Trifluoromethylphenyl)-pentanamide]
[1]; Mus musculus, ip, mice i.p., @ 0.5 hrs
  ED50: 86.6 mg/kg
[1]; at 100 mg/kg
  activity in the MES test: activity
[2]; Mus musculus, mice i.p., @ 0.5 hrs
  ED50: 149 mg/kg
[2]; mice, at 300 mg/kg
  activity in the s.c. MET test: activity
[9]; mice, at 100 mg/kg
  activity in the 6 Hz (minimal clonic seizure) model: activity
[5]
  activity in the MES test: activity
[3]
  neuroprotective effect against H2O2 and MPP+ oxidative stresses (MTT and LDH assays): statistically significant, dose-dependent neuroprotection
[6]
  SMN2 promoter assay, particularly strong hits: particularly strong hits
  Promoter (SMN2 promoter test, summary YES/NO): YES
  SMN2 promoter activity: increased SMN2 promoter activity
[10]
  TD50 at 0.25 hr: 142 mg/kg

## COc1ccc(C(CC(N)=O)C2CC2)cc1 (centres unmarked) [AM, 3-Cyclopropyl-3-(4-methoxy-phenyl)-propionamide]
[1]; mice i.p., 100 mg/kg @ 0.25 hr
  MES, fraction of animals: 1/3 @
[1]; at 100 mg/kg
  activity in the MES test: activity
[9]; 100 mg/kg @ 0.25 hr
  6 Hz (32 mA), fraction of animals: 1/4
[9]; 100 mg/kg @ 0.5 hr
  6 Hz (32 mA), fraction of animals: 2/4
[9]; 100 mg/kg @ 1.0 hr
  6 Hz (32 mA), fraction of animals: 1/4 @
[5]
  activity in the MES test: activity
[6]
  SMN2 promoter assay, particularly strong hits: Particularly strong hits
  Promoter (SMN2 promoter test, summary YES/NO): YES
  SMN2 promoter activity: increased SMN2 promoter activity
[7]
  effect on the inclusion of exon 7 in SMN2 transcripts: positive effect on the inclusion of exon 7
  exon 7 test, particularly strong hits: Particularly strong hits
  Exon 7 inclusion (summary YES/NO): YES
[8]; [11]
  responders at 400 mg/kg: 38%
[8]; [12]
  responders at 200 mg/kg: 100%

## CC(CC(=O)N1CCCC1)c1ccc(OC(F)(F)F)cc1 (centres unmarked) [BG, 1-Pyrrolidin-1-yl-3-(4-trifluoromethoxy-phenyl)-butan-1-one]
[1]; mice i.p., 100 mg/kg @ 0.5 hr
  MES, fraction of animals: 1/3 @
[1]; at 100 mg/kg
  activity in the MES test: activity
[5]
  activity in the MES test: activity
